pKi: −log10 of the molar value. Like-named read-outs stand apart in the source and are kept apart here.

Among the data in EP1873150A1, “Fluorinated indoleamides useful as ligands of the ORL-1 receptor” (NIKEM RESEARCH S.R.L., priority 2006, dated 2008) are IC50 and Ki values, retold here.

The target in one experiment is T1, CYP3A4 (Homo sapiens, UniProt P08684).
T1 construct: purchased Gentest Corporation, Woburn, MA (Supersomes); host or cells: baculovirus-insect cells
Kind of experiment: Interaction with Cytochrome P450 isoenzymes: CYP3A4. Format: in vitro ADME. The settings on record: Supersomes expressing human CYP3A4, substrate BFC, fluorometric; read-out: CYP450 interaction (IC50, uM) 3A4. As for the experimental part:
(§1) The assay was performed in a 96-well microtiter plates as described in Stresser et al., Drug Metab. Dispos. 28, 1440 (2000). Microsomes from baculovirus-insect cells (Supersomes, Gentest Corporation, Woburn, MA) expressing human cytochrome P450 isoforms (CYP1A2, CYP2C9, CYP2C19, CYP2D6 and CYP3A4) were utilized. Test compounds or standard inhibitors (dissolved in DMSO or acetonitrile) were serially diluted in a solution containing 16.3 uM NADP^+, 0.83 mM glucose-6-phosphate, 0.83 mM MgCl2, 0.4 U/mL of glucose-6-phosphate dehydrogenase and 0.1 mg/mL microsomal protein prepared from wild-type baculovirus-infected insect cells. Appropriate control wells without inhibitor and without microsomes were also added. The plates were then pre-warmed at 37°C for 10 min, and the reaction was started by adding pre-warmed enzyme/substrate mix (cytochrome P450 isoforms with their specific substrates in a 0.35 M potassium phosphate buffer at pH 7.4). Specific substrates were 3-cyano-7-ethoxycoumarin (CEC) for CYP1A2 and CYP2C19, 7-methoxy-4-trifluoromethylcoumarin (MFC) or dibenzylfluorescein (DBF) for CYP2C9, 3-[2-(N,N-diethyl-N-methylamino)ethyl]-7-methoxy-4-methylcoumarin (AMMC) for CYP2D6 and 7-benzyloxy-4-(trifluoromethyl)-coumarin (BFC) for CYP3A4. Reaction was terminated at various times, depending on the assays, by addition of a 4:1 acetonitrile:0.5 M Tris base solution. Known inhibitors for each isoenzyme (furafylline for CYP1A2, sulfaphenazole for CYP2C9, tranylcypromine for CYP2C19, quinidine for CYP2D6 and ketoconazole for CYP3A4) were tested in all assays as positive controls. Plates were read on a fluorometer (Fluoroskan Ascent, ThermoElectron Corporation, Helsinki, Finland) at the appropriate emission/excitation wavelengths. Median inhibitory concentration (IC50) was determined by nonlinear regression (GraFit software, Erithacus Software, Horley, UK).

The next experiment has as its target T2, CYP1A2 (Homo sapiens, UniProt P05177).
T2 construct: purchased Gentest Corporation, Woburn, MA (Supersomes); host or cells: baculovirus-insect cells
T2 sequence (P05177 1-516): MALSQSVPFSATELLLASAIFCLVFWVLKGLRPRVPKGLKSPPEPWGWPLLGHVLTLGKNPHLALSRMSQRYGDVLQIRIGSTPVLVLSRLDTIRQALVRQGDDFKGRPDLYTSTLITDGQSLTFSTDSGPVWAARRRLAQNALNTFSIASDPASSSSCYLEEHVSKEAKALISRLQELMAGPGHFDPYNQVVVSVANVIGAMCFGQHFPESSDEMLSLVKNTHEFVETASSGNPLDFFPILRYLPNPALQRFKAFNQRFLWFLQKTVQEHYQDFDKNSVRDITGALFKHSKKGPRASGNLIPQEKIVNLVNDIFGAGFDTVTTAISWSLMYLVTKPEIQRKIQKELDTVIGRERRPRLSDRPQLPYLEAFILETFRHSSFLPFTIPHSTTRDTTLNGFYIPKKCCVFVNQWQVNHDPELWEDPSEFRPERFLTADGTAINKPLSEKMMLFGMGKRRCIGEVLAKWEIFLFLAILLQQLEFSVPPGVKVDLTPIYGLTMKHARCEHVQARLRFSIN
Kind of experiment: Interaction with Cytochrome P450 isoenzymes: CYP1A2. The settings on record: Supersomes expressing human CYP1A2, substrate CEC, fluorometric; read-out: CYP450 interaction (IC50, uM) 1A2. The format is in vitro ADME. How it is done:
as §1

The target in a further experiment is T3, CYP2C19 (Homo sapiens, UniProt P33261).
T3 construct: purchased Gentest Corporation, Woburn, MA (Supersomes); host or cells: baculovirus-insect cells
Kind of experiment: Interaction with Cytochrome P450 isoenzymes: CYP2C19. The settings on record: Supersomes expressing human CYP2C19, substrate CEC, fluorometric; read-out: CYP450 interaction (IC50, uM) 2C19. Format: in vitro ADME. How it is done:
as §1

In a further experiment the target is T4, CYP2D6 (Homo sapiens, UniProt P10635).
T4 construct: purchased Gentest Corporation, Woburn, MA (Supersomes); host or cells: baculovirus-insect cells
Kind of experiment: Interaction with Cytochrome P450 isoenzymes: CYP2D6. The format is in vitro ADME. The settings on record: Supersomes expressing human CYP2D6, substrate AMMC, fluorometric; read-out: CYP450 interaction (IC50, uM) 2D6. How it is done:
as §1

In a further experiment the target is T5, CYP2C9 (Homo sapiens, UniProt P11712).
T5 construct: purchased Gentest Corporation, Woburn, MA (Supersomes); host or cells: baculovirus-insect cells
Kind of experiment: Interaction with Cytochrome P450 isoenzymes: CYP2C9. Format: in vitro ADME. The settings on record: Supersomes expressing human CYP2C9, substrate MFC or DBF, fluorometric; read-out: CYP450 interaction (IC50, uM) 2C9. How it is done: as §1

In a further experiment the target is ORL-1 receptor (Homo sapiens, UniProt P41146). Kind of experiment: ORL-1 receptor binding studies, radioligand [3H]-AcRYYRWK-NH2. How it is done: The receptor binding studies were carried out on 96-well plates; the incubation medium was Tris HCl pH 7.4 (4°C) containing MgCl2 (5 mM), EGTA (0.2 mM), BSA (0.1 %), with a final volume of […], using as radioligand [^3H]-AcRYYRWK-NH2 (Amersham, 103 Ci/mmol). The samples were incubated at 37°C for 120 min. and were then filtered off via Whatman GF/B filters pre-treated with 0.2% polyethylenimine. The filters were washed three times with Tris HCl buffer pH 7.4 (4°C). The radioactivity present on the filters was measured using a Packard Top Count microplate scintillation counter.

Where [1] appears, read: radioligand [3H]-AcRYYRWK-NH2, 37°C, 120 min, read-out: ORL-1 Binding affinity (Ki).

Chain of ORL-1 receptor (P41146 whole entry): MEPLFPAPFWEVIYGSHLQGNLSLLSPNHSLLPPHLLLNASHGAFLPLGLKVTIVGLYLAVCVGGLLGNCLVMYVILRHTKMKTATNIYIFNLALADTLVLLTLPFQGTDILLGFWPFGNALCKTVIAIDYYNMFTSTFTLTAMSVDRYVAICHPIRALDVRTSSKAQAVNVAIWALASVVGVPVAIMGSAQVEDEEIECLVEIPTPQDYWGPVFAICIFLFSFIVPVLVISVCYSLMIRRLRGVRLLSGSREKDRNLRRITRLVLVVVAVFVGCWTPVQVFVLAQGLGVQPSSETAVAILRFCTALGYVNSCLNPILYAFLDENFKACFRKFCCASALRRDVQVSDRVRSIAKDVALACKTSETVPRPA
T1 sequence (P08684 whole entry): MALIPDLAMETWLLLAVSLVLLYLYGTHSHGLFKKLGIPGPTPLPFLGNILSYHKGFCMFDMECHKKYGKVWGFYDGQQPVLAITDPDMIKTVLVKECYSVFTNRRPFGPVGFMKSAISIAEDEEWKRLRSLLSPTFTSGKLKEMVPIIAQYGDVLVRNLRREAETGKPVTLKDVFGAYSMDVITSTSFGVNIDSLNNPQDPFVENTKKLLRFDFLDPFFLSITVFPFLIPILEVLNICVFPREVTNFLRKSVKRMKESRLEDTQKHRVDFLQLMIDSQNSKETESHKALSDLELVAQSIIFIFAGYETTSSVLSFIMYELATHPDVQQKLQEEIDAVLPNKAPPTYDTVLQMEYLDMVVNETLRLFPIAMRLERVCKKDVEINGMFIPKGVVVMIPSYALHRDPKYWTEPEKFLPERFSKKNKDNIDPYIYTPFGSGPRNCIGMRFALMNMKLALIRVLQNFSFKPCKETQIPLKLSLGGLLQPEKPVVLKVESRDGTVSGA
T5 sequence (P11712 whole entry): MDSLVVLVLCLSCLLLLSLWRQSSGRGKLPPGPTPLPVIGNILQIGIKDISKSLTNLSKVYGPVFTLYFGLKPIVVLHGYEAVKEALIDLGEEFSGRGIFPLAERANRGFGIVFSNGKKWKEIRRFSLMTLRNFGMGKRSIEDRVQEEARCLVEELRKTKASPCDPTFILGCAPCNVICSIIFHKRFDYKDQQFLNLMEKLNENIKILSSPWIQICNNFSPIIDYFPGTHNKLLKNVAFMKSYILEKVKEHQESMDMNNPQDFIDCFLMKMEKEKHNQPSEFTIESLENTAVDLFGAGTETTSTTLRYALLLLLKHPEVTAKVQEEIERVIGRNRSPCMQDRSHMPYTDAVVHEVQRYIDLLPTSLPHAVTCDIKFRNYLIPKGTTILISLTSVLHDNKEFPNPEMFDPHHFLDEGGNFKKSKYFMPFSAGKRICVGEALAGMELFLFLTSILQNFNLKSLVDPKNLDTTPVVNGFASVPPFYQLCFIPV
T4 sequence (P10635 whole entry): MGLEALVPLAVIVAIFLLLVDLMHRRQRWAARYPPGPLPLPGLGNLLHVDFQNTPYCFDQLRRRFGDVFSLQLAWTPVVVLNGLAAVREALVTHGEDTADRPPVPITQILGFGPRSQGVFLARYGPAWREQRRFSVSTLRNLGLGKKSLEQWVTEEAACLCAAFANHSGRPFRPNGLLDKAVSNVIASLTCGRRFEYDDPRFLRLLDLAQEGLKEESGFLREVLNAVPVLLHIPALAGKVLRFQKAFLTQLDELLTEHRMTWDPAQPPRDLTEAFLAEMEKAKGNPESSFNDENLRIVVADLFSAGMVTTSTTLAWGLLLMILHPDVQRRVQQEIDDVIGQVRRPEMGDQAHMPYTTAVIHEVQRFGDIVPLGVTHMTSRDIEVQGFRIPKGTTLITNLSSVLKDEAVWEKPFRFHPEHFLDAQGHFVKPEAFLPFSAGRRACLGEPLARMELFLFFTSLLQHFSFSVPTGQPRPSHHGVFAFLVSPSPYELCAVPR
T3 sequence (P33261 whole entry): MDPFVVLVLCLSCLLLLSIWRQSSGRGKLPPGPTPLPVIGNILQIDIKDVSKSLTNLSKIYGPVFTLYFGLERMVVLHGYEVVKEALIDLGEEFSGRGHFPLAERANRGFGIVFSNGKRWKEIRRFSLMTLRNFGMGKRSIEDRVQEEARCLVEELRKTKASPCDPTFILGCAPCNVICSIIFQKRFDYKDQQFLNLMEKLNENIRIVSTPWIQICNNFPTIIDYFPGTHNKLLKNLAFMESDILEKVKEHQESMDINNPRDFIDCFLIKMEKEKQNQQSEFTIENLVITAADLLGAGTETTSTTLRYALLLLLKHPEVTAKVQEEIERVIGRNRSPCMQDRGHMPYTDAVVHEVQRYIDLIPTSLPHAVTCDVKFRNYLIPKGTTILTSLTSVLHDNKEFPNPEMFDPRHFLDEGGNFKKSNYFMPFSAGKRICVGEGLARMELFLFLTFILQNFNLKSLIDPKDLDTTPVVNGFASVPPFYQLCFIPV

As to `Fc1cccc(F)c1C1CCN(Cc2c(-c3ccccc3)[nH]c3ccccc23)CC1` [53 (W02005005411), reference compound], the IC50 at CYP3A4 is 13 µM; at CYP1A2 it was 11.8 µM; on CYP2C19, 17.4 µM; at CYP2D6, less than 0.1 µM; at CYP2C9 it was 10.7 µM.
On to `CC(=O)N(C)C1CCN(C(=O)c2[nH]c3ccccc3c2CN2CCC(c3c(F)cccc3Cl)CC2)C1` (stereo not shown) [Example 3, N-(1-{3-[4-(2-Chloro-6-fluoro-phenyl)-piperidin-1-ylmethyl]-1 H-indole-2-carbonyl}-pyrrolidin-3-yl)-N-methyl-acetamide], for which the IC50 on CYP3A4 was 54.7 µM; at CYP1A2, greater than 100 µM; at CYP2C19 it was 47.5 µM; at CYP2D6 it was 8.6 µM; at CYP2C9 it was 25.9 µM. The negative-log Ki (pKi) on ORL-1 receptor (setting [1]) is 8.38.
`O=C(c1[nH]c2ccccc2c1CN1CCC(c2c(F)cccc2F)CC1)N1CCN(CCOCCO)CC1` [Example 6, {3-[4-(2,6-Difluoro-phenyl)-piperidin-1-ylmethyl]-1H-indol-2-yl}-{4-[2-(2-hydroxy-ethoxy)-ethyl]-piperazin-1-yl}-methanone]: the concentration for half-maximal inhibition (IC50) is 98.2 µM on CYP3A4; greater than 100 µM on CYP1A2; greater than 100 µM on CYP2C19; 5.1 µM on CYP2D6; greater than 100 µM on CYP2C9. For the same molecule, the pKi on ORL-1 receptor (setting [1]) was 7.47.
On to `NC(=O)Cn1c(C(=O)N2CCOCC2)c(CN2CCC(c3c(F)cccc3Cl)CC2)c2ccccc21` [Example 7, 2-[3-[4-(2-Chloro-6-fluoro-phenyl)-piperidin-1-ylmethyl]-2-(morpholine-4-carbonyl)-indol-1-yl]-acetamide], for which the IC50 was 13.3 µM on CYP3A4; greater than 100 µM at CYP1A2; 25.1 µM at CYP2C19; 16.8 µM on CYP2D6; 20.2 µM at CYP2C9. Moreover, at ORL-1 receptor (setting [1]), the negative logarithm of the Ki (pKi) was 8.32.
Consider `NC(=O)Cn1c(C(=O)N2CCOCC2)c(CN2CCC(c3c(F)cccc3F)CC2)c2ccccc21` [Example 8, 2-[3-[4-(2,6-Difluoro-phenyl)-piperidin-1-ylmethyl]-2-(morpholine-4-carbonyl)-indol-1-yl]-acetamide], for which the concentration for half-maximal inhibition (IC50) is 25.6 µM on CYP3A4; 86 µM on CYP1A2; 70.1 µM at CYP2C19; 6.2 µM on CYP2D6; 31.2 µM on CYP2C9.
In the case of `Cc1c(CN2CCC(c3c(F)cccc3Cl)CC2)c2ccccc2n1CC(=O)NC1CCN(C)CC1` [Example 11, 2-{3-[4-(2-Chloro-6-fluoro-phenyl)-piperidin-1-ylmethyl]-2-methyl-indol-1-yl}-N-(1-methyl-piperidin-4-yl)-acetamide], the IC50 on CYP3A4 was 9.6 µM; on CYP1A2, greater than 100 µM; on CYP2C19 it was 47.4 µM; at CYP2D6, 20.7 µM; at CYP2C9, greater than 100 µM. For the same molecule, the pKi on ORL-1 receptor was 8.26.
`O=C(Cn1c(-c2ccccc2)c(CN2CCC(c3c(F)cccc3Cl)CC2)c2ccccc21)N1CCOCC1` [Example 12, 2-{3-[4-(2-Chloro-6-fluoro-phenyl)-piperidin-1-ylmethyl]-2-phenyl-indol-1-y}-1-morpholin-4-yl-ethanone]: the IC50 was 18.2 µM at CYP3A4; greater than 100 µM on CYP1A2; greater than 100 µM at CYP2C19; 36.6 µM at CYP2D6; greater than 100 µM on CYP2C9. Besides, on ORL-1 receptor (setting [1]), the pKi was 8.55.
For the molecule `O=C(Cn1c(-c2ccccc2)c(CN2CCC(c3c(F)cccc3F)CC2)c2ccccc21)N1CCOCC1` [Example 13, 2-{3-[4-(2,6-Difluoro-phenyl)-piperidin-1-ylmethyl]-2-phenyl-indol-1-yl}-l-morpholin-4-yl-ethanone], the IC50 on CYP3A4 was 38.1 µM; at CYP1A2 it was greater than 100 µM; on CYP2C19 it was 62.6 µM; on CYP2D6, 94.6 µM; at CYP2C9, 98.6 µM. Further, on ORL-1 receptor, the pKi is 7.74.
In the case of `CN1CCN(C(=O)Cn2c(-c3ccccc3)c(CN3CCC(c4c(F)cccc4F)CC3)c3ccccc32)CC1` [Example 15, 2-{3-[4-(2,6-Difluoro-phenyl)-piperidin-1-ylmethyl]-2-phenyl-indol-1-yl}-1-(4-methyl-piperazin-1-yl)-ethanone], the IC50 was 6.2 µM at CYP3A4; greater than 100 µM on CYP1A2; 38.3 µM on CYP2C19; 34.7 µM on CYP2D6; 74.4 µM on CYP2C9. In addition, the pKi at ORL-1 receptor (setting [1]) is 8.09.

Broadly, the IC50 is the point on the concentration scale where inhibition reaches its midpoint. The pKi is the Ki on a negative log10 scale, so that one unit is a factor of ten.
